Reference: ChEMBL document CHEMBL1201862, “PubChem BioAssay data set” (2004)
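In this assay, cells in 96-well plates receive the compound at five concentrations for 48 hours. Endpoints are linearly interpolated between the surrounding concentrations. Here, GI50 denotes the concentration required for 50% inhibition of growth.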 Calls of active or inactive are those of the source. No stated cut-off is given here; in the data, active = GI50 up to about 1.1 µM and inactive = higher.

How the values were obtained:
Experiment in all cases: DTP human tumour cell line panel, 48 h
[1] = tested on: OVCAR-3
[2] = tested on: COLO 205
[3] = tested on: A498
[4] = tested on: OVCAR-8
[5] = tested on: LOX IMVI
[6] = tested on: CCRF-CEM
[7] = tested on: UO-31
[8] = tested on: DMS-114
[9] = tested on: DMS-273
[10] = tested on: SN12C
[11] = tested on: SNB-19
[12] = tested on: SF-268
[13] = tested on: UACC-257
[14] = tested on: NCI-H522
[15] = tested on: 786-0
[16] = tested on: K562
[17] = tested on: SK-MEL-5
[18] = tested on: HCT-15
[19] = tested on: U-251
[20] = tested on: OVCAR-4
[21] = tested on: CAKI-1
[22] = tested on: HOP-62
[23] = tested on: SW-620
[24] = tested on: HOP-92
[25] = tested on: TK-10
[26] = tested on: HT-29
[27] = tested on: IGROV-1
[28] = tested on: RXF 393
[29] = tested on: A549
[30] = tested on: M19-MEL
[31] = tested on: SNB-78
[32] = tested on: SK-MEL-2
[33] = tested on: KM-20L2
[34] = tested on: SK-OV-3
[35] = tested on: XF498
[36] = tested on: UACC-62
[37] = tested on: DLD-1
[38] = tested on: NCI-H460
[39] = tested on: HL-60
[40] = tested on: LXFL 529
[41] = tested on: NCI-H226
[42] = tested on: EKVX
[43] = tested on: HCC 2998
[44] = tested on: M14
[45] = tested on: HOP-18
[46] = tested on: NCI-H23
[47] = tested on: SNB-75
[48] = tested on: SF-295
[49] = tested on: HCT-116
[50] = tested on: ACHN
[51] = tested on: SK-MEL-28
[52] = tested on: OVCAR-5
[53] = tested on: Malme-3M
[54] = tested on: RXF 631

Compound: CCOC(=O)CCn1[nH]c(=O)c(Cl)c(Cl)c1=O
- GI50 [1]: > 100 µM (inactive)
- GI50 [2]: > 100 µM (inactive)
- GI50 [3]: > 100 µM (inactive)
- GI50 [4]: > 100 µM (inactive)
- GI50 [5]: > 100 µM (inactive)
- GI50 [6]: > 100 µM (inactive)
- GI50 [7]: > 100 µM (inactive)
- GI50 [8]: > 100 µM (inactive)
- GI50 [9]: > 100 µM (inactive)
- GI50 [10]: > 100 µM (inactive)
- GI50 [11]: > 100 µM (inactive)
- GI50 [12]: > 100 µM (inactive)
- GI50 [13]: > 100 µM (inactive)
- GI50 [14]: > 100 µM (inactive)
- GI50 [15]: > 100 µM (inactive)
- GI50 [16]: > 100 µM (inactive)
- GI50 [17]: > 100 µM (inactive)
- GI50 [18]: > 100 µM
- GI50 [19]: > 100 µM (inactive)
- GI50 [20]: > 100 µM (inactive)
- GI50 [21]: > 100 µM (inactive)
- GI50 [22]: > 100 µM (inactive)
- GI50 [23]: > 100 µM (inactive)
- GI50 [24]: > 100 µM (inactive)
- GI50 [25]: > 100 µM (inactive)
- GI50 [26]: > 100 µM (inactive)
- GI50 [27]: > 100 µM (inactive)
- GI50 [28]: > 100 µM (inactive)
- GI50 [29]: > 100 µM (inactive)
- GI50 [30]: > 100 µM (inactive)
- GI50 [31]: > 100 µM (inactive)
- GI50 [32]: > 100 µM (inactive)
- GI50 [33]: > 100 µM (inactive)
- GI50 [34]: > 100 µM (inactive)
- GI50 [35]: > 100 µM (inactive)
- GI50 [36]: > 100 µM (inactive)
- GI50 [37]: > 100 µM (inactive)
- GI50 [38]: > 100 µM (inactive)
- GI50 [39]: > 100 µM (inactive)
- GI50 [40]: > 100 µM (inactive)
- GI50 [41]: > 100 µM (inactive)
- GI50 [42]: > 100 µM (inactive)
- GI50 [43]: > 100 µM (inactive)
- GI50 [44]: > 100 µM (inactive)
- GI50 [45]: > 100 µM (inactive)
- GI50 [46]: > 100 µM (inactive)
- GI50 [47]: > 100 µM (inactive)
- GI50 [48]: > 100 µM (inactive)
- GI50 [49]: > 100 µM (inactive)
- GI50 [50]: > 100 µM (inactive)
- GI50 [51]: > 100 µM (inactive)
- GI50 [52]: > 100 µM (inactive)
- GI50 [53]: > 100 µM (inactive)
- GI50 [54]: > 100 µM (inactive)
